EPA's ToxRefDB 2
Where a name gives a salt, the structure may show the parent alone.

Key:
rat [1] = settings: Subchronic oral toxicity in rodents, other, Feed, dose end: 13 week, group: systemic
rat [2] = settings: Subchronic oral toxicity in rodents, sprague dawley, Gavage/Intubation, dose end: 13 week, group: systemic
mouse [3] = settings: Subchronic dermal toxicity, cd1, Topical, dose end: 49 day, group: systemic
rat [4] = settings: Prenatal developmental toxicity study, sprague dawley, Dermal, Topical, dose end: 15 GD, group: maternal
rat [5] = settings: Prenatal developmental toxicity study; other; Inhalation; Nose-Only; dose end: 16 GD; group: maternal; systemic / in life observation / body weight / body weight gain + systemic / in life observation / food consumption / food consumption
mouse [6] = settings: Subchronic oral toxicity in rodents, cd1, Feed, dose end: 13 week, group: systemic, systemic / clinical chemistry / alkaline phosphatase (alp/alk) / alkaline phosphatase (alp/alk) + systemic / pathology microscopic / liver…
rabbit = settings: Prenatal developmental toxicity study, new zealand white, Oral, Gavage/Intubation, dose end: 18 GD, group: maternal
mouse [7] = settings: Subchronic oral toxicity in rodents, Feed, dose end: 28 day, group: systemic
rat [8] = settings: Multigenerational reproductive toxicity study, sprague dawley, Oral, Feed, dose end: 2 generation
rat [9] = settings: Combined chronic toxicity/carcinogenicity; sprague dawley; Oral; Feed; dose end: 104 week; group: systemic; systemic / pathology microscopic / lung / foam cell aggregation + systemic / hematology / erythrocyte (rbc) count differential / erythrocyte…
rat [10] = settings: Subchronic oral toxicity in rodents, fischer, Water, dose end: 14 week, group: systemic
rat [11] = settings: Prenatal developmental toxicity study, sprague dawley, Oral, Gavage/Intubation, dose end: 15 GD
mouse [12] = settings: Subchronic oral toxicity in rodents, b6c3f1, Water, dose end: 13 week
mouse [13] = settings: Sub-acute repeat dose toxicity, b6c3f1, Oral, Water, dose end: 14 day, group: systemic
rat [14] = settings: Sub-acute repeat dose toxicity, fischer, Oral, Water, dose end: 14 day, group: systemic
mouse [15] = settings: Combined chronic toxicity/carcinogenicity; b6c3f1; Oral; Water; dose end: 105 week; group: systemic; systemic / in life observation / body weight / body weight
rat [16] = settings: Combined chronic toxicity/carcinogenicity, fischer, Oral, Water, dose end: 105 week, group: systemic
rat [17] = settings: Sub-acute repeat dose toxicity, sprague dawley, Oral, Gavage/Intubation, dose end: 28 day, group: systemic
[18] = systemic / hematology / erythrocyte (rbc) count differential / erythrocyte (rbc) + systemic / in life observation / body weight / body …
[19] = systemic / urinalysis / ketones / ketones
[20] = systemic / organ weight / kidney / relative to body weight + systemic / organ weight / liver / absolute + systemic / organ weight / liver / …
[21] = systemic / in life observation / clinical signs / erythema + systemic / pathology microscopic / skin / edema
[22] = systemic / in life observation / clinical signs / erythema + systemic / pathology microscopic / skin / edema + systemic / in life …
[23] = systemic / in life observation / body weight / body weight + systemic / in life observation / clinical signs / [other] + systemic / in life …
[24] = systemic / in life observation / body weight / body weight + systemic / in life observation / clinical signs / red or crusty deposits around…
[25] = reproductive / offspring survival early / live fetuses / live fetuses
[26] = systemic / pathology microscopic / liver / infiltration cellular
[27] = group: maternal, systemic / in life observation / body weight / body weight gain
[28] = group: offspring, developmental / offspring survival late / viability index / viability index + systemic / in life observation / body weight / offspring (pup…
[29] = group: offspring, systemic / in life observation / body weight / offspring (pup) weight
[30] = group: parental, systemic / in life observation / body weight / body weight + systemic / in life observation / body weight / body weight gain
[31] = group: parental, systemic / in life observation / body weight / body weight gain
[32] = systemic / clinical chemistry / bile acids / bile acids + systemic / in life observation / body weight / body weight + systemic / in life …
[33] = systemic / in life observation / body weight / body weight + systemic / in life observation / body weight / body weight gain + systemic / …
[34] = group: developmental, systemic / in life observation / body weight / fetal weight
[35] = group: maternal, systemic / in life observation / clinical signs / ataxia + systemic / in life observation / clinical signs / lethargy + systemic / in life …
[36] = group: maternal, reproductive / reproductive performance / estrous cycle / length
[37] = group: systemic, systemic / in life observation / clinical signs / dehydration + systemic / in life observation / clinical signs / feces, discoloration + …
[38] = group: systemic, systemic / in life observation / water consumption / water consumption
[39] = systemic / in life observation / body weight / body weight gain + systemic / organ weight / liver / absolute + systemic / organ weight / …
[40] = systemic / pathology microscopic / kidney / hyperplasia + systemic / pathology microscopic / kidney / nephropathy + systemic / in life …
[41] = systemic / clinical chemistry / phosphorus / phosphorus + systemic / clinical chemistry / bilirubin / total bilirubin + systemic / pathology…
[42] = systemic / pathology gross / uterus / fluid contents

CC(=O)CCc1ccc(O)cc1 [4-(4-Hydroxyphenyl)butan-2-one]
LOAEL (rat [1]; [18]): > 678 mg/kg/day | NOAEL (rat [1]; [18]): ≥ 678 mg/kg/day | LEL (rat [1]; [19]): 65 mg/kg/day | NEL (rat [1]; [19]): < 65 mg/kg/day

Cc1cc(O)cc(C)c1Cl [4-Chloro-3,5-dimethylphenol]
LEL (rat [2]; systemic / in life observation / body weight / body weight gain + systemic / in life observation / clinical signs / salivation + systemic / …): 1250 mg/kg/day | NEL (rat [2]; systemic / in life observation / clinical signs / salivation): 25 mg/kg/day | LOAEL (rat [2]; [20]): 2500 mg/kg/day | NOAEL (rat [2]; [20]): 1250 mg/kg/day | LOAEL (mouse [3]; [21]): 213 mg/kg/day | NOAEL (mouse [3]; [21]): < 213 mg/kg/day | LEL (mouse [3]; [22]): 213 mg/kg/day | NEL (mouse [3]; [22]): < 213 mg/kg/day

c1ccc2c(c1)Oc1ccccc1[As]2O[As]1c2ccccc2Oc2ccccc21 [10,10'-Oxybisphenoxarsine]
LOAEL (rat [4]; [23]): > 30 mg/kg/day | NOAEL (rat [4]; [23]): ≥ 30 mg/kg/day | LEL (rat [4]; [24]): 0.3 mg/kg/day | NEL (rat [4]; [24]): < 0.3 mg/kg/day

COS(=O)(=O)OC [Dimethyl sulfate]
LEL (rat [5]): 0.7 ppm | LOAEL (rat [5]): > 1.5 ppm | NEL (rat [5]): 0.1 ppm | NOAEL (rat [5]): ≥ 1.5 ppm

Oc1cc(Cl)ccc1Oc1ccc(Cl)cc1Cl [Triclosan]
LEL (mouse [6]): 25 mg/kg/day | LOAEL (mouse [6]): 25 mg/kg/day | NEL (mouse [6]): < 25 mg/kg/day | NOAEL (mouse [6]): < 25 mg/kg/day | LEL (rabbit; [25]): 15 mg/kg/day | NEL (rabbit; [25]): < 15 mg/kg/day | LOAEL (rabbit; systemic / in life observation / body weight / body weight + systemic / in life observation / food consumption / food consumption): 150 mg/kg/day | NOAEL (rabbit; systemic / in life observation / body weight / body weight + systemic / in life observation / food consumption / food consumption + …): 50 mg/kg/day | LOAEL (mouse [7]; systemic / clinical chemistry / alkaline phosphatase (alp/alk) / alkaline phosphatase (alp/alk) + systemic / clinical chemistry / alanine …): 136 mg/kg/day | LEL (mouse [7]; [26]): 6.48 mg/kg/day | NEL (mouse [7]; [26]): < 6.48 mg/kg/day | NOAEL (mouse [7]; systemic / pathology microscopic / liver / infiltration cellular + systemic / clinical chemistry / alkaline phosphatase (alp/alk) / alkaline…): 6.48 mg/kg/day | LEL (rat [8]; [27]): 150 mg/kg/day | LOAEL (rat [8]; [27]): > 150 mg/kg/day | NEL (rat [8]; [27]): 50 mg/kg/day | NOAEL (rat [8]; [27]): ≥ 150 mg/kg/day | LOAEL (rat [8]; [28]): 150 mg/kg/day | NOAEL (rat [8]; [28]): 50 mg/kg/day | LEL (rat [8]; [29]): 15 mg/kg/day | NEL (rat [8]; [29]): < 15 mg/kg/day | LOAEL (rat [8]; [30]): 150 mg/kg/day | NOAEL (rat [8]; [30]): 50 mg/kg/day | LEL (rat [8]; [31]): 15 mg/kg/day | NEL (rat [8]; [31]): < 15 mg/kg/day | LEL (rat [9]): 15 mg/kg/day | LOAEL (rat [9]): 15 mg/kg/day | NEL (rat [9]): < 15 mg/kg/day | NOAEL (rat [9]): < 15 mg/kg/day

CC(CO)OC(C)CO.CC(O)COCC(C)O (stereo not drawn) [Dipropylene glycol]
LEL (rat [10]; [32]): 425 mg/kg/day | NEL (rat [10]; [32]): < 425 mg/kg/day | LOAEL (rat [10]; [33]): 8950 mg/kg/day | NOAEL (rat [10]; [33]): 3340 mg/kg/day | LEL (rat [11]; [34]): 5000 mg/kg/day | LOAEL (rat [11]; [34]): > 5000 mg/kg/day | NEL (rat [11]; [34]): 2000 mg/kg/day | NOAEL (rat [11]; [34]): ≥ 5000 mg/kg/day | LEL (rat [11]; [35]): 2000 mg/kg/day | LOAEL (rat [11]; [35]): > 5000 mg/kg/day | NEL (rat [11]; [35]): 800 mg/kg/day | NOAEL (rat [11]; [35]): ≥ 5000 mg/kg/day | LEL (mouse [12]; [36]): 14700 mg/kg/day | LOAEL (mouse [12]; [36]): > 14700 mg/kg/day | NEL (mouse [12]; [36]): 7430 mg/kg/day | NOAEL (mouse [12]; [36]): ≥ 14700 mg/kg/day | LOAEL (mouse [12]; [37]): > 11000 mg/kg/day | NOAEL (mouse [12]; [37]): ≥ 11000 mg/kg/day | LEL (mouse [12]; [38]): 715 mg/kg/day | NEL (mouse [12]; [38]): < 715 mg/kg/day | LOAEL (mouse [13]; systemic / in life observation / body weight / body weight gain): 10700 mg/kg/day | LEL (mouse [13]; [39]): 10700 mg/kg/day | NOAEL (mouse [13]; [39]): 5330 mg/kg/day | NEL (mouse [13]; systemic / in life observation / clinical signs / abnormal gait + systemic / in life observation / clinical signs / emaciation + systemic / …): 5330 mg/kg/day | LOAEL (rat [14]; systemic / in life observation / body weight / body weight + systemic / in life observation / body weight / body weight gain): 11100 mg/kg/day | NOAEL (rat [14]; systemic / in life observation / body weight / body weight + systemic / in life observation / body weight / body weight gain + systemic / in…): 5420 mg/kg/day | LEL (rat [14]; systemic / organ weight / liver / absolute + systemic / organ weight / liver / relative to body weight): 2650 mg/kg/day | NEL (rat [14]; systemic / organ weight / liver / absolute + systemic / organ weight / liver / relative to body weight + systemic / in life observation / …): 1450 mg/kg/day | LEL (mouse [15]): 1950 mg/kg/day | LOAEL (mouse [15]): 1950 mg/kg/day | NEL (mouse [15]): 1040 mg/kg/day | NOAEL (mouse [15]): 1040 mg/kg/day | LOAEL (rat [16]; systemic / pathology microscopic / kidney / hyperplasia + systemic / pathology microscopic / kidney / nephropathy): 470 mg/kg/day | NEL (rat [16]; [40]): 115 mg/kg/day | NOAEL (rat [16]; [40]): 115 mg/kg/day | LEL (rat [16]; systemic / pathology microscopic / kidney / hyperplasia + systemic / pathology microscopic / kidney / nephropathy + systemic / pathology …): 470 mg/kg/day

O=C([O-])CNCO.[Na+] [Glycine, N-(hydroxymethyl)-, monosodium salt]
LOAEL (rat [17]; [41]): 640 mg/kg/day | NOAEL (rat [17]; [41]): 160 mg/kg/day | LEL (rat [17]; [42]): 40 mg/kg/day | NEL (rat [17]; [42]): < 40 mg/kg/day
